Assay results from patent publication US4921865A, “Aminoacylates of glycerol acetal” (Societe de Conseils de Recherches et d'Applications …, priority 1987, dated 1990).

Key:
[1] = tested on: PAF-induced [Ca^2+ ]i mobilization, washed rabbits platelets; test: inhibition of intracytosolic free calcium mobilization induced by PAF in washed rabbit platelets; type: cell-based; conditions: PAF 2×10^-9 M
Protocol: Blood was taken from the auricular artery of the rabbit on citric acid/sodium citrate/dextrose and anticoagulan and the washed platelets were prepared according to Ardlie et al., Brit. J. Pharmacology, 19, 7-17, 1970. They were incubated with acetylsalicylic salt (100 μM, 30 minutes) to avoid thromboxane induced aggregation. They were then loaded with the fluorescent calcium indicator dye quin 2 by incubation with quin 2 aceto-methylester (15 μM in DMSO, 20 minutes at room temperature) which penetrates the cell membrane and after hydrolysed is trapped in the platelet. Drugs were preincubated with platelets for 15 minutes simultaneously to CP/CPK mixture which destroys secreted ADP.
Fluorescent measurement was then performed (excitation λ=339 nm, emission λ=494 nm) after PAF addition to platelet suspension. The fluorescence intensity is proportional to the cytosolic free calcium level [Ca^2+ ]i which can be quantified as described by Tsien et al., J. Cell Biol., 94, 325-334, 1982.

[2] = tested on: PAF-induced thrombocytopenia; test: PAF-induced thrombocytopenia in the guinea pig; type: in vivo; conditions: for Percentage Variation (thrombocytopenia): vs control; for Percentage Decrease in leukocyte number: thrombocytopenia
Protocol: (§1) Male Guinea-pig (400-500 g) were anesthetized with urethane (1.5 g/kg: IP) prior to be tracheotomized and ventilated with a respiratory pump (UGO BASILE) (70-80 breath/minute, 1 ml air/100 g/breath) to abolish spontaneous respiration a pneumothorax was performed. The resistance to inflation was measured with a pressure transducer (UGO BASILE) against an initial pressure of 10 cm H2 O according to Konzett and Rossler. Animals were allocated into groups and were treated or not by the compounds of the invention (0.05, 0.1, 0.5, 1 and 5 mg/kg).The products were given IV 1 hour before challenge with PAF.
(§2) The animals were challenged with various doses of PAF ([…]) given intravenously, and the variations in the resistance to inflation were recorded.
(§3) Blood samples were collected prior to and 1,5 and 10 minutes following to PAF-challenge. Forty μl of blood were diluted in 10 ml isoton (Coultronics, France); erythrocytes were lysed with Zapoglobin (France) prior leukocytes were counted in a coulter counter. To determine platelet number, 40 μl of blood were diluted in 2 ml isoton and centrifuged at 100 runs per minute for 30 secondes, 100 μl of the supernatant were collected and further diluted in 10 ml isoton prior counting in a coulter counter.

[3] = tested on: PAF-induced leukopenia; test: PAF-induced leukopenia in the guinea pig; type: in vivo; conditions: for Percentage Variation (leukopenia): vs control
Protocol: as §1, §2, §3

[4] = tested on: platelets (PAF induced platelet aggregation); test: inhibition of PAF-induced platelet aggregation in platelet rich plasma; type: cell-based, New Zealand rabbits; conditions: Oryctolagus cuniculus; rabbit platelet rich plasma, 2.5 nM PAF
Protocol: 1--INHIBITION OF THE PLATELETS AGGREGATION ON NEW ZEALAND RABBITS
The experimentation was conducted on platelets with plasma of New Zealand rabbits.
Blood samples were taken from auricular artery and placed in a citrate buffer (3.8 %; pH 7.4); blood was further centrifugated for 15 mn at 1200 RPM.
The tested sample was prepared in DMSO, then poured on platelets rich plasma for 1 mn, then a dose of 2.5 nM of PAF was added.
The determination is made on a Cronolog Coultronics apparatus which determines the transmission percentage corresponding to the maximum height of the peak before the desaggregation.
The percentage of variation of the inhibition with respect to the transmission percentage is calculated (control: pure DMSO).
This method was described in details in LABORATORY INVESTIGATIONS, Vol. 41, No. 3, p. 275, 1979, JEAN-PIERRE CAZENAVE, Dr. MED. , JACQUES BENVENISTE, Dr. MED., AND J. FRASER MUSTARD, M.D., "Aggregation of Rabbits Platelets by Platelet-Activating Factor Is Independent of the Release Reaction and the Arachidonate Pathway and Inhibited by Membrane-Active Drugs".
Five tests made on 5 different rabbits allowed us to calculate the IC50 of the various compounds using the linear regression test.

[5] = tested on: PAF-induced bronchoconstriction; test: PAF-induced bronchoconstriction in the guinea pig; type: in vivo; conditions: for Percentage Variation (bronchoconstriction): vs control
Protocol: as §1, §2

[6] = pyridinium compound 0.5, 1 and 5 mg/kg IV, quinolinium compound 0.5 and 1 mg/kg IV

SMILES: CCCCCCCCCCCCCCCCCC1(C)OCC(COC(=O)CCCCC[n+]2ccccc2)O1 (centres unmarked) [Example 9, 2-heptadecyl 2-methyl 4-[6'-(N-pyridinium)hexanoyloxymethyl] 1,3 dioxolan bromide]
- inhibition of PAF-induced [Ca^2+ ]i mobilization (in words) ([1]; 5×10^-7 M): totally inhibit
- inhibition at 0.05 µM ([1]; Oryctolagus cuniculus, Platelet, 5×10^-8 M, read-out: inhibition of PAF effect on [Ca^2+ ]i): 44%
- Percentage Variation (thrombocytopenia) ([2]; 0.05 mg/kg IV, 1 mn): -34.1%
- Percentage Variation (thrombocytopenia) ([2]; 0.05 mg/kg IV, 5 mn): +1.4%
- Percentage Variation (thrombocytopenia) ([2]; 0.05 mg/kg IV, 10 mn): -15.1%
- Percentage Variation (thrombocytopenia) ([2]; 0.1 mg/kg IV, 1 mn): -56.1%
- Percentage Variation (thrombocytopenia) ([2]; 0.1 mg/kg IV, 5 mn): -18.2%
- Percentage Variation (thrombocytopenia) ([2]; 0.1 mg/kg IV, 10 mn): -0.5%
- Percentage Variation (thrombocytopenia) ([2]; 0.5 mg/kg IV, 1 mn): -71.9%
- Percentage Variation (thrombocytopenia) ([2]; 0.5 mg/kg IV, 5 mn): -77.4%
- Percentage Variation (thrombocytopenia) ([2]; 0.5 mg/kg IV, 10 mn): -74.4%
- Percentage Variation (thrombocytopenia) ([2]; 1 mg/kg IV, 1 mn): -83.2%
- Percentage Variation (thrombocytopenia) ([2]; 1 mg/kg IV, 5 mn): -46.9%
- Percentage Variation (thrombocytopenia) ([2]; 1 mg/kg IV, 10 mn): -50.6%
- Percentage Variation (thrombocytopenia) ([2]; 5 mg/kg IV, 1 mn): -93.9%
- Percentage Variation (thrombocytopenia) ([2]; 5 mg/kg IV, 5 mn): -86.8%
- Percentage Variation (thrombocytopenia) ([2]; 5 mg/kg IV, 10 mn): -97.4%
- inhibition of PAF-induced thrombocytopenia (in words) [2, 6]: inhibit
- Percentage Decrease in leukocyte number ([2]; 0.05 mg/kg IV, 1 mn): 45.2 +/- 1.20%
- Percentage Decrease in leukocyte number ([2]; 0.05 mg/kg IV, 5 mn): 43.0 +/- 4.80%
- Percentage Decrease in leukocyte number ([2]; 0.05 mg/kg IV, 10 mn): 36.1 +/- 2.41%
- Percentage Decrease in leukocyte number ([2]; 0.1 mg/kg IV, 1 mn): 30.1 +/- 13.72%
- Percentage Decrease in leukocyte number ([2]; 0.1 mg/kg IV, 5 mn): 34.7 +/- 3.60%
- Percentage Decrease in leukocyte number ([2]; 0.1 mg/kg IV, 10 mn): 42.3 +/- 4.79%
- Percentage Decrease in leukocyte number ([2]; 0.5 mg/kg IV, 1 mn): 19.3 +/- 10.19%
- Percentage Decrease in leukocyte number ([2]; 0.5 mg/kg IV, 5 mn): 9.6 +/- 12.15%
- Percentage Decrease in leukocyte number ([2]; 0.5 mg/kg IV, 10 mn): 10.9 +/- 9.94%
- Percentage Decrease in leukocyte number ([2]; 1 mg/kg IV, 1 mn): 11.5 +/- 6.21%
- Percentage Decrease in leukocyte number ([2]; 1 mg/kg IV, 5 mn): 22.5 +/- 3.27%
- Percentage Decrease in leukocyte number ([2]; 1 mg/kg IV, 10 mn): 21.0 +/- 3.87%
- Percentage Decrease in leukocyte number ([2]; 5 mg/kg IV, 1 mn): 4.2 +/- 2.35%
- Percentage Decrease in leukocyte number ([2]; 5 mg/kg IV, 5 mn): 5.6 +/- 1.84%
- Percentage Decrease in leukocyte number ([2]; 5 mg/kg IV, 10 mn): 1.1 +/- 1.15%
- Percentage Decrease of leukocyte number ([3]; 0.05 mg/kg IV, 1 mn): 45.3 +/- 5.70%
- Percentage Variation (leukopenia) ([3]; 0.05 mg/kg IV, 1 mn): +11.0%
- Percentage Decrease of leukocyte number ([3]; 0.05 mg/kg IV, 5 mn): 21.6 +/- 3.42%
- Percentage Variation (leukopenia) ([3]; 0.05 mg/kg IV, 5 mn): -26.0%
- Percentage Decrease of leukocyte number ([3]; 0.05 mg/kg IV, 10 mn): 14.2 +/- 17.30%
- Percentage Variation (leukopenia) ([3]; 0.05 mg/kg IV, 10 mn): -57.6%
- Percentage Decrease of leukocyte number ([3]; 0.1 mg/kg IV, 1 mn): 41.8 +/- 6.50%
- Percentage Variation (leukopenia) ([3]; 0.1 mg/kg IV, 1 mn): +2.5%
- Percentage Decrease of leukocyte number ([3]; 0.1 mg/kg IV, 5 mn): 31.9 +/- 4.88%
- Percentage Variation (leukopenia) ([3]; 0.1 mg/kg IV, 5 mn): -9.2%
- Percentage Decrease of leukocyte number ([3]; 0.1 mg/kg IV, 10 mn): 33.5 +/- 4.65%
- Percentage Variation (leukopenia) ([3]; 0.1 mg/kg IV, 10 mn): 0.0%
- Percentage Decrease of leukocyte number ([3]; 0.5 mg/kg IV, 1 mn): 34.6 +/- 6.35%
- Percentage Variation (leukopenia) ([3]; 0.5 mg/kg IV, 1 mn): -15.2%
- Percentage Decrease of leukocyte number ([3]; 0.5 mg/kg IV, 5 mn): 19.0 +/- 6.42%
- Percentage Variation (leukopenia) ([3]; 0.5 mg/kg IV, 5 mn): -34.9%
- Percentage Decrease of leukocyte number ([3]; 0.5 mg/kg IV, 10 mn): 14.6 +/- 5.36%
- Percentage Decrease of leukocyte number ([3]; 1 mg/kg IV, 1 mn): 3.5 +/- 12.60%
- Percentage Variation (leukopenia) ([3]; 1 mg/kg IV, 1 mn): -91.4%
- Percentage Decrease of leukocyte number ([3]; 1 mg/kg IV, 5 mn): 2.9 +/- 10.51%
- Percentage Variation (leukopenia) ([3]; 1 mg/kg IV, 5 mn): -90.1%
- Percentage Decrease of leukocyte number ([3]; 1 mg/kg IV, 10 mn): 1.0 +/- 22.62%
- Percentage Variation (leukopenia) ([3]; 1 mg/kg IV, 10 mn): -97.0%
- Percentage Decrease of leukocyte number ([3]; 5 mg/kg IV, 1 mn): 16.5 +/- 2.42%
- Percentage Variation (leukopenia) ([3]; 5 mg/kg IV, 1 mn): -59.6%
- Percentage Decrease of leukocyte number ([3]; 5 mg/kg IV, 5 mn): 15.9 +/- 0.99%
- Percentage Variation (leukopenia) ([3]; 5 mg/kg IV, 5 mn): -45.5%
- Percentage Decrease of leukocyte number ([3]; 5 mg/kg IV, 10 mn): 18.7 +/- 5.08%
- Percentage Variation (leukopenia) ([3]; 5 mg/kg IV, 10 mn): -44.2%
- IC50 [4]: 404 nM
- Percentage Bronchoconstriction ([5]; 0.05 mg/kg IV): 79.0 +/- 9.27%
- Percentage Variation (bronchoconstriction) ([5]; 0.05 mg/kg IV): -1.0%
- Percentage Bronchoconstriction ([5]; 0.1 mg/kg IV): 43.8 +/- 14.77%
- Percentage Variation (bronchoconstriction) ([5]; 0.1 mg/kg IV): -45.1%
- Percentage Bronchoconstriction ([5]; 0.5 mg/kg IV): 23.6 +/- 7.15%
- Percentage Variation (bronchoconstriction) ([5]; 0.5 mg/kg IV): -70.4%
- Percentage Bronchoconstriction ([5]; 1 mg/kg IV): 19.1 +/- 10.51%
- Percentage Variation (bronchoconstriction) ([5]; 1 mg/kg IV): -76.1%
- Percentage Bronchoconstriction ([5]; 5 mg/kg IV): 3.5 +/- 1.53%
- Percentage Variation (bronchoconstriction) ([5]; 5 mg/kg IV): -95.6%
- inhibition of PAF-induced bronchoconstriction (in words) [5, 6]: inhibit
